24 compounds from patent US20240368078A1, “ARYL HETEROCYCLIC COMPOUNDS AS Kv1.3 POTASSIUM SHAKER CHANNEL BLOCKERS” (D.E. SHAW RESEARCH, LLC, priority 2021, published 2024) can be followed below.

Series [1] deals with hERG channel (Homo sapiens (Human), UniProt Q12809). Put plainly: hERG electrophysiology, automated whole-cell patch clamp in CHO-K1 cells stably expressing hERG. The series is classed as cell-based. As to conditions: Patchliner patch clamp. The procedure:
Example 22. Evaluation of hERG Activities
This assay is used to evaluate the disclosed compounds's inhibition activities against the hERG channel.
This assay is used to evaluate the disclosed compounds' inhibition activities against the hERG channel.
CHO-K1 cells stably expressing hERG were grown in Ham's F-12 Medium with glutamine containing 10% heat-inactivated FBS, 1% penicillin/streptomycin, hygromycin (100 μg/ml) and G418 (100 μg/ml). Cells were grown in culture flasks at 37° C. in a 5% CO2— humidified incubator.
The cells were bathed in an extracellular solution containing 140 mM NaCl, 4 mM KCl, 2 mM CaCl2), 1 mM MgCl2, 5 mM Glucose, 10 mM HEPES; pH adjusted to 7.4 with NaOH; 295-305 mOsm. The internal solution contained 50 mM KCl, 10 mM NaCl, 60 mM KF, 20 mM EGTA, 10 mM HEPES; pH adjusted to 7.2 with KOH; 285 mOsm. All compounds were dissolved in DMSO at 30 mM. Compound stock solutions were freshly diluted with external solution to concentrations of 30 nM, 100 nM, 300 nM, 1 μM, 3 μM, 10 μM, 30 μM and 100 μM. The highest content of DMSO (0.3%) was present in 100 μM.
The voltage protocol (see Table B) was designed to simulate voltage changes during a cardiac action potential with a 300 ms depolarization to +20 mV (analogous to the plateau phase of the cardiac action potential), a repolarization for 300 ms to −50 mV (inducing a tail current) and a final step to the holding potential of −80 mV. The pulse frequency was 0.3 Hz. Control (compound-free) and compound pulse trains for each compound concentration applied contained 70 pulses.
(§1) Whole-cell current recordings and compound application were enabled by means of an automated patch clamp platform Patchliner (Nanion). EPC 10 patch clamp amplifier (HEKA) along with Patchmaster software (HEKA Elektronik Dr. Schulze GmbH) was used for data acquisition. Data were sampled at 10 kHz without filtering. Increasing compound concentrations were applied consecutively to the same cell without washouts in between.
AUC and PEAK values were obtained with Patchmaster (HEKA Elektronik Dr. Schulze GmbH). To determine IC50 the last single pulse in the pulse train corresponding to a given compound concentration was used. Obtained AUC and PEAK values in the presence of compound were normalized to control values in the absence of compound. Using Origin (OridinLab), IC50 was derived from data fit to Hill equation: Icompound/Icontrol=(100−A)/(1+([compound]/IC50)nH)+A, where IC50 is the concentration at which current inhibition is half-maximal, [compound] is the applied compound concentration, A is the fraction of current that is not blocked and nH is the Hill coefficient.
A general note: Block of hERG is tested as a sign of cardiac risk.

Series [2] addresses Kv1.3 potassium channel (Homo sapiens (Human), UniProt P22001). Description: Kv1.3 potassium channel blocker activity, automated whole-cell patch clamp in CHO-K1 cells stably expressing Kv1.3. Type of series: cell-based. Conditions: Patchliner patch clamp. On the procedure: Example 21. Evaluation of Kv1.3 Potassium Channel Blocker Activities
This assay is used to evaluate the disclosed compounds' activities as Kv1.3 potassium channel blockers.
CHO-K1 cells stably expressing Kv1.3 were grown in DMEM containing 10% heat-inactivated FBS, 1 mM sodium pyruvate, 2 mM L-glutamine, and G418 (500 μg/ml). Cells were grown in culture flasks at 37° C. in a 5% C02-humidified incubator.
The cells were bathed in an extracellular solution containing 140 mM NaCl, 4 mM KCl, 2 mM CaCl2), 1 mM MgCl2, 5 mM glucose, 10 mM HEPES; pH adjusted to 7.4 with NaOH; 295-305 mOsm. The internal solution contained 50 mM KCl, 10 mM NaCl, 60 mM KF, 20 mM EGTA, 10 mM HEPES; pH adjusted to 7.2 with KOH; 285 mOsm. All compounds were dissolved in DMSO at 30 mM. Compound stock solutions were freshly diluted with external solution to concentrations of 30 nM, 100 nM, 300 nM, 1 μM, 3 μM, 10 μM, 30 μM and 100 μM. The highest content of DMSO (0.3%) was present in 100 μM.
The currents were evoked by applying 100 ms depolarizing pulses from −90 mV (holding potential) to +40 mV were applied with 0.1 Hz frequency. Control (compound-free) and compound pulse trains for each compound concentration applied contained 20 pulses. 10-second breaks were used between pulse trains (see Table A below).
as §1, with “(Nanion Technologies GmbH).” for “(Nanion).”, “(HEKA Elektronik Dr. Schulze GmbH)” for “(HEKA)”, “filtering. Passive leak currents were subtracted online using a P/4 procedure (HEKA Elektronik Dr. Schulze GmbH).” for “filtering.”, “between. Total compound incubation time before the next pulse train was not longer than 10 seconds. Peak current inhibition was observed during compound equilibration.” for “between.”
AUC and peak values were obtained with Patchmaster (HEKA Elektronik Dr. Schulze GmbH). To determine IC50, the last single pulse in the pulse train corresponding to a given compound concentration was used. Obtained AUC and peak values in the presence of compound were normalized to control values in the absence of compound. Using Origin (OridinLab), IC50 was derived from data fit to Hill equation: Icompound/Icontrol=(100-A)/(1+([compound]/IC50)nH)+A, where IC50 value is the concentration at which current inhibition is half-maximal, [compound] is the applied compound concentration, A is the fraction of current that is not blocked and nH is the Hill coefficient.

Sequence of Kv1.3 potassium channel (P22001 whole entry): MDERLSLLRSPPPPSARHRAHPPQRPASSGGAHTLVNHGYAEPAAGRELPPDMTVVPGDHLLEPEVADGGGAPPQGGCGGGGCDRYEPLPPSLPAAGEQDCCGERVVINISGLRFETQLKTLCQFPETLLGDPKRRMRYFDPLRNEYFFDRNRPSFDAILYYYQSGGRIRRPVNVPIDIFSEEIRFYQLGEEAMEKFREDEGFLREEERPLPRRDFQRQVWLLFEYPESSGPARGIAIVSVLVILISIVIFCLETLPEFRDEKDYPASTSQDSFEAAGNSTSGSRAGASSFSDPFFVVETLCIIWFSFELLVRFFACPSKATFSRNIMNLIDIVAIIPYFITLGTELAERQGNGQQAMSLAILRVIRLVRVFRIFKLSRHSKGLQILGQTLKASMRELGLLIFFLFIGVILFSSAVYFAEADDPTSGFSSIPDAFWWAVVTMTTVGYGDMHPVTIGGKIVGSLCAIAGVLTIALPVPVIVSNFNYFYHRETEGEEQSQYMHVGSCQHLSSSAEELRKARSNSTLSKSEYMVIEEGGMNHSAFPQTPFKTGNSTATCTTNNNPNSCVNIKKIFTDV
Sequence of hERG channel (Q12809 whole entry): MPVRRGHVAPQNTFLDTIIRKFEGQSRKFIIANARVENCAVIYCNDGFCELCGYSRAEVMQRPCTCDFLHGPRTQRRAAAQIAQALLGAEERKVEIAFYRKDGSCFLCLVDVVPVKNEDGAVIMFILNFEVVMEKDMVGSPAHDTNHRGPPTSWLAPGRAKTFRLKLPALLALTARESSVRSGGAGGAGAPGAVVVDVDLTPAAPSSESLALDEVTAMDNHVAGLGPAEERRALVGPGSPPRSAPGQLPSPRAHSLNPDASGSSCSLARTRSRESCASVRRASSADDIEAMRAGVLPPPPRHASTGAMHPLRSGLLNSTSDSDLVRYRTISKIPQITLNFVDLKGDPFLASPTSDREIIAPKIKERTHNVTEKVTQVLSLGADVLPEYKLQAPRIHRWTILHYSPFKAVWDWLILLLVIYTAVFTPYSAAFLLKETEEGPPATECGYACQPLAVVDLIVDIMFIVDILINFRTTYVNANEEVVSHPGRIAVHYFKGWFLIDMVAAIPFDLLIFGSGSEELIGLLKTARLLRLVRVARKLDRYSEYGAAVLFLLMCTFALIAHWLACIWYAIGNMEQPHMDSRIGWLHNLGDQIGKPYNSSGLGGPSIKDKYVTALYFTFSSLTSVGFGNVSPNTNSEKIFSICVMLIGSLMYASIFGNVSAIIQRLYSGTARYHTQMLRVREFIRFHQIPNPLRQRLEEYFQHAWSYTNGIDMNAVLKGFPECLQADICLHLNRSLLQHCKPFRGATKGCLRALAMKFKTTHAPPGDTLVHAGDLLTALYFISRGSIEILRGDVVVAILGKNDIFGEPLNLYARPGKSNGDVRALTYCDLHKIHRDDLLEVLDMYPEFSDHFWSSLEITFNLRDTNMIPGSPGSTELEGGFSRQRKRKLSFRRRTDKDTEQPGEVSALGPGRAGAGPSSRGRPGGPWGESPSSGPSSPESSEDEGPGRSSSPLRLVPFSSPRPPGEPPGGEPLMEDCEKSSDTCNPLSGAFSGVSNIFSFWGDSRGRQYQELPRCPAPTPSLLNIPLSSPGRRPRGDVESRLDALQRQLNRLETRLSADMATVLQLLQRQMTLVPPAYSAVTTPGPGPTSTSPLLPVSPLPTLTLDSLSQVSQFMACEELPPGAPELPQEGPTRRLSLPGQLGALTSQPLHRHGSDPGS

Turning to `C[C@@H](C(N)=O)[C@H]1CN[C@@H](c2c(O)ccc(Cl)c2Cl)C1` (single isomer, unassigned) [Compound 44], the values for the IC50 in series [1] and in series [2] were greater than 100 µM and less than 1000 nM, respectively.
`C[C@H](C(N)=O)[C@H]1CN[C@@H](c2c(O)ccc(Cl)c2Cl)C1` (single isomer, unassigned) [Compound 45]: the 50% inhibitory concentration (IC50) (usually the concentration needed to halve the response being measured) is greater than 100 µM in series [1] and less than 100 nM in series [2].
Turning to `CC[C@@H](C(N)=O)[C@H]1CN[C@@H](c2c(O)ccc(Cl)c2Cl)C1` (single isomer, unassigned) [Compound 46], the 50% inhibitory concentration (IC50) in series [1] was greater than 100 µM; in series [2], less than 1000 nM.
For `CC[C@H](C(N)=O)[C@H]1CN[C@@H](c2c(O)ccc(Cl)c2Cl)C1` (single isomer, unassigned) [Compound 47] the same measures were 100 µM and less than 100 nM.
Consider `COC[C@H](C(N)=O)[C@H]1CN[C@@H](c2c(O)ccc(Cl)c2Cl)C1` (single isomer, unassigned) [Compound 74], for which the results for the IC50 in series [1] and in series [2] were greater than 100 µM and less than 1000 nM, respectively.
In the case of `COC[C@@H](C(N)=O)[C@H]1CN[C@@H](c2c(O)ccc(Cl)c2Cl)C1` (single isomer, unassigned) [Compound 75], the figures for the IC50 in series [1] and in series [2] were greater than 100 µM and less than 1000 nM, respectively.
On to `NC(=O)[C@@H](CO)[C@H]1CN[C@@H](c2c(O)ccc(Cl)c2Cl)C1` (single isomer, unassigned) [Compound 76], for which the values for the IC50 in series [1] and in series [2] were greater than 100 µM and less than 1000 nM, respectively.
With `NC(=O)C(CO)[C@H]1CN[C@@H](c2c(O)ccc(Cl)c2Cl)C1` (single isomer, unassigned) [Compound 77], the values for the IC50 in series [1] and in series [2] were greater than 100 µM and less than 100 nM, respectively.
Take `NC(=O)C[C@H]1CN[C@@H](c2c(O)ccc(Cl)c2Cl)C1` [Compound 31, 2-[(3S,5R)-5-(2,3-dichloro-6-hydroxyphenyl)pyrrolidin-3-yl]acetamide]: the IC50 in series [1] is greater than 100 µM; in series [2], less than 1000 nM.
`O=C(CC1CN[C@@H](c2c(O)ccc(Cl)c2Cl)C1)N1CC(O)(CO)C1` (stereo partly drawn) [Compound 33, 2-((5R)-5-(2,3-dichloro-6-hydroxyphenyl)pyrrolidin-3-yl)-1-(3-hydroxy-3-(hydroxymethyl)azetidin-1-yl)ethan-1-one]: the results for the half-maximal inhibitory concentration (IC50) in series [1] and in series [2] were greater than 100 µM and less than 100 nM, respectively.
In the case of `O=C(CC1CN[C@@H](c2c(O)ccc(Cl)c2Cl)C1)NCCO` (stereo partly drawn) [Compound 34, 2-((5R)-5-(2,3-dichloro-6-hydroxyphenyl)pyrrolidin-3-yl)-N-(2-hydroxyethyl)acetamide], the 50% inhibitory concentration (IC50) in series [1] is greater than 100 µM; in series [2], less than 100 nM.
On to `CN(CCO)C(=O)CC1CN[C@@H](c2c(O)ccc(Cl)c2Cl)C1` (stereo partly drawn) [Compound 35, 2-((5R)-5-(2,3-dichloro-6-hydroxyphenyl)pyrrolidin-3-yl)-N-(2-hydroxyethyl)-N-methylacetamide], for which the IC50 was greater than 30 µM in series [1] and less than 100 nM in series [2].
Turning to `CNC(=O)CC1CN[C@@H](c2c(O)ccc(Cl)c2Cl)C1` (stereo partly drawn) [Compound 36, 2-((5R)-5-(2,3-dichloro-6-hydroxyphenyl)pyrrolidin-3-yl)-N-methylacetamide], the half-maximal inhibitory concentration (IC50) is greater than 30 µM in series [1] and less than 100 nM in series [2].
As to `CN(C)C(=O)CC1CN[C@@H](c2c(O)ccc(Cl)c2Cl)C1` (stereo partly drawn) [Compound 37, 2-((5R)-5-(2,3-dichloro-6-hdyroxyphenyl)pyrrolidin-3-yl)-N,N-dimethylacetamide], the 50% inhibitory concentration (IC50) was greater than 30 µM in series [1] and less than 1000 nM in series [2].
Regarding `NC(=O)CC1CN[C@@H](c2cc(Cl)c(Cl)cc2O)C1` (stereo partly drawn) [Compound 38, 2-((5R)-5-(4,5-dichloro-2-hydroxyphenyl)pyrrolidin-3-yl)acetamide], the IC50 is greater than 10 µM in series [1] and less than 1000 nM in series [2].
As to `O=C(CC1CN[C@@H](c2c(O)ccc(Cl)c2Cl)C1)N1CC[C@@H](O)C1` (stereo partly drawn) [Compound 39, 2-((5R)-5-(2,3-dichloro-6-hydroxyphenyl)pyrrolidin-3-yl)-1-((R)-3-hydroxypyrrolidin-1-yl)ethan-1-one], the IC50 is greater than 100 µM in series [1] and less than 100 nM in series [2].
Consider `O=C(CC1CN[C@@H](c2c(O)ccc(Cl)c2Cl)C1)N1CC[C@H](O)C1` (stereo partly drawn) [Compound 40, 2-((5R)-5-(2,3-dichloro-6-hydroxyphenyl)pyrrolidin-3-yl)-1-((S)-3-hydroxypyrrolidin-1-yl)ethan-1-one], for which the IC50 in series [1] was greater than 100 µM; in series [2], less than 1000 nM.
As to `CN(C)C(=O)C[C@H]1CN[C@@H](c2c(O)ccc(Cl)c2Cl)C1` [Compound 41, 2-((3S,5R)-5-(2,3-dichloro-6-hydroxyphenyl)pyrrolidin-3-yl)-N,N-dimethyalcetamide], the IC50 was greater than 30 µM in series [1] and less than 1000 nM in series [2].
For the compound `CNC(=O)C[C@H]1CN[C@@H](c2c(O)ccc(Cl)c2Cl)C1` [Compound 42, 2-((3S,5R)-5-(2,3-dichloro-6-hydroxyphenyl)pyrrolidin-3-yl)-N-methylacetamide], the figures for the half-maximal inhibitory concentration (IC50) in series [1] and in series [2] were greater than 30 µM and less than 100 nM, respectively.
Consider `O=C(C[C@H]1CN[C@@H](c2c(O)ccc(Cl)c2Cl)C1)N1CC(O)(CO)C1` [Compound 43, 2-((3S,5R)-5-(2,3-dichloro-6-hydroxyphenyl)pyrrolidin-3-yl)-1-(3-hydroxy-3-(hydroxymethyl)azetidin-1-yl)ethan-1-one], for which the IC50 was greater than 100 µM in series [1] and less than 100 nM in series [2].
On to `O=C(CO)NC[C@@H]1CN[C@@H](c2c(O)ccc(Cl)c2Cl)C1` [Compound 48, N-{[(3S,5R)-5-(2,3-dichloro-6-hydroxyphenyl)pyrrolidin-3-yl]methyl}-2-hydroxyacetamide], for which the figures for the IC50 in series [1] and in series [2] were greater than 30 µM and less than 1000 nM, respectively.
Regarding `O=C(CO)NC[C@H]1CN[C@@H](c2c(O)ccc(Cl)c2Cl)C1` [Compound 49, N-(((3R,5R)-5-(2,3-dichloro-6-hydroxyphenyl)pyrrolidin-3-yl)methyl)-2-hydroxyacetamide], the IC50 was greater than 100 µM in series [1] and less than 1000 nM in series [2].
As to `CC(C)(C(N)=O)[C@H]1CN[C@@H](c2c(O)ccc(Cl)c2Cl)C1` [Compound 52, 2-[(3S,5R)-5-(2,3-dichloro-6-hydroxyphenyl)pyrrolidin-3-yl]-2-methylpropanamide], the results for the half-maximal inhibitory concentration (IC50) in series [1] and in series [2] were greater than 30 µM and less than 1000 nM, respectively.
With `NC(=O)C[C@@H]1CC[C@H](c2c(O)ccc(Cl)c2Cl)N1` [Compound 53, 2-((2S,5R)-5-(2,3-dichloro-6-hydroxyphenyl)pyrrolidin-2-yl)acetamide], the concentration for half-maximal inhibition (IC50) in series [1] is greater than 100 µM; in series [2], less than 1000 nM.
